Reference: patent EP0327492A1, “Herbicidally and plantgrowth regulatory active quinoline and pyrindine compounds” (CIBA-GEIGY AG, priority 1988, dated 1989)

What was measured:
Assay type in all cases: in vivo
Abutilon [1] = experiment: Pre-emergent herbicidal action (B.2); conditions: 500 bis 2000 [g/ha], evaluated after 3 weeks
Method: (§1) Im Gewächshaus wird unmittelbar nach der Einsaat der Versuchspflanzen in Saatschalen die Erdoberfläche mit einer wässrigen Dispersion der Wirkstoffe, erhalten aus einem 25 %igen Emulsionskonzentrat behandelt. Es werden Konzentrationen von 2000-500 g Wirksubstanz/Hektar angewendet. Die Saatschalen werden im Gewächshaus bei 22-25° C und 50-70 % relativer Luftfeuchtigkeit gehalten und der Versuch nach 3 Wochen ausgewertet und die Resultate nach folgender Notenskala ausgewertet. • 1 Pflanze hat nicht gekeimt oder ist eingegangen • 2-3 sehr starke Schäden • 4 starke Schäden • 5 mittlere Schäden, die Pflanzen sind verkümmert • 6 Schäden, die Pflanze kann regenerieren • 7-8 leichte Schäden • 9 normales Wachstum, wie das unbehandelter Pflanzen
(§2) Boniturnoten von 1 bis 4 (insbesondere von 1 bis 3) weisen auf eine gute bis sehr gute Herbizidwirkung hin. Boniturnoten von 6 bis 9 (insbesondere 7 bis 9) weisen auf eine gute Toleranz (insbesondere bei Kulturpflanzen) hin.

Alopecurus myos. [2] = experiment: Pre-emergent herbicidal action (B.2); conditions: 500 bis 2000 [g/ha], evaluated after 3 weeks
Method: as §1, §2

Amaranthus ret. [3] = experiment: Pre-emergent herbicidal action (B.2); conditions: 500 bis 2000 [g/ha], evaluated after 3 weeks
Method: as §1, §2

Avena fatua [4] = experiment: Pre-emergent herbicidal action (B.2); conditions: 500 bis 2000 [g/ha], evaluated after 3 weeks
Method: as §1, §2

Bromus tectorum [5] = experiment: Pre-emergent herbicidal action (B.2); conditions: 500 bis 2000 [g/ha], evaluated after 3 weeks
Method: as §1, §2

Chenopodium Sp. [6] = experiment: Pre-emergent herbicidal action (B.2); conditions: 500 bis 2000 [g/ha], evaluated after 3 weeks
Method: as §1, §2

Chrysanthe. leuc. [7] = experiment: Pre-emergent herbicidal action (B.2); conditions: 500 bis 2000 [g/ha], evaluated after 3 weeks
Method: as §1, §2

Digitaria sang. [8] = experiment: Pre-emergent herbicidal action (B.2); conditions: 500 bis 2000 [g/ha], evaluated after 3 weeks
Method: as §1, §2

Echinochloa crus galli [9] = experiment: Pre-emergent herbicidal action (B.2); conditions: 500 bis 2000 [g/ha], evaluated after 3 weeks
Method: as §1, §2

Galium aparine [10] = experiment: Pre-emergent herbicidal action (B.2); conditions: 500 bis 2000 [g/ha], evaluated after 3 weeks
Method: as §1, §2

Ipomoea = experiment: Pre-emergent herbicidal action (B.2); conditions: 500 bis 2000 [g/ha], evaluated after 3 weeks
Method: as §1, §2

Lolium perenne [11] = experiment: Pre-emergent herbicidal action (B.2); conditions: 500 bis 2000 [g/ha], evaluated after 3 weeks
Method: as §1, §2

Sinapis [12] = experiment: Pre-emergent herbicidal action (B.2); conditions: 500 bis 2000 [g/ha], evaluated after 3 weeks
Method: as §1, §2

Solanum nigrum [13] = experiment: Pre-emergent herbicidal action (B.2); conditions: 500 bis 2000 [g/ha], evaluated after 3 weeks
Method: as §1, §2

Sorghum halep. [14] = experiment: Pre-emergent herbicidal action (B.2); conditions: 500 bis 2000 [g/ha], evaluated after 3 weeks
Method: as §1, §2

Stellaria [15] = experiment: Pre-emergent herbicidal action (B.2); conditions: 500 bis 2000 [g/ha], evaluated after 3 weeks
Method: as §1, §2

Veronica Sp. [16] = experiment: Pre-emergent herbicidal action (B.2); conditions: 500 bis 2000 [g/ha], evaluated after 3 weeks
Method: as §1, §2

Abutilon [17] = experiment: Post-emergent herbicidal action, contact herbicide (B.3); conditions: 500 bis 2000 [g/ha], 15 days after treatment
Method: as §1, §2
(§3) Eine Anzahl Unkräuter, sowohl monokotyle wie dikotyle, werden nach dem Auflaufen (im 4- bis 6-Blattstadium) mit einer wässrigen Wirkstoffdispersion in einer Dosierung von 2000-500 g Wirksubstanz pro Hektar auf die Pflanzen gespritzt und diese bei 24°-26°C und 45-60 % relativer Luftfeuchtigkeit gehalten. 15 Tage nach der Behandlung wird der Versuch nach dem in Beispiel B.2. gegebenen Massstab bewertet.

Alopecurus myos. [18] = experiment: as above; conditions: 500 bis 2000 [g/ha], 15 days after treatment
Method: as §1, §2, §3

Amaranthus ret. [19] = experiment: as above; conditions: 500 bis 2000 [g/ha], 15 days after treatment
Method: as §1, §2, §3

Avena fatua [20] = experiment: as above; conditions: 500 bis 2000 [g/ha], 15 days after treatment
Method: as §1, §2, §3

Bromus tectorum [21] = experiment: as above; conditions: 500 bis 2000 [g/ha], 15 days after treatment
Method: as §1, §2, §3

Chenopodium Sp. [22] = experiment: as above; conditions: 500 bis 2000 [g/ha], 15 days after treatment
Method: as §1, §2, §3

Chrysanthe. leuc. [23] = experiment: as above; conditions: 500 bis 2000 [g/ha], 15 days after treatment
Method: as §1, §2, §3

Digitaria sang. [24] = experiment: as above; conditions: 500 bis 2000 [g/ha], 15 days after treatment
Method: as §1, §2, §3

Echinochloa crus galli [25] = experiment: as above; conditions: 500 bis 2000 [g/ha], 15 days after treatment
Method: as §1, §2, §3

Galium aparine [26] = experiment: as above; conditions: 500 bis 2000 [g/ha], 15 days after treatment
Method: as §1, §2, §3

Lolium perenne [27] = experiment: as above; conditions: 500 bis 2000 [g/ha], 15 days after treatment
Method: as §1, §2, §3

Sinapis [28] = experiment: as above; conditions: 500 bis 2000 [g/ha], 15 days after treatment
Method: as §1, §2, §3

Solanum nigrum [29] = experiment: as above; conditions: 500 bis 2000 [g/ha], 15 days after treatment
Method: as §1, §2, §3

Sorghum halep. [30] = experiment: as above; conditions: 500 bis 2000 [g/ha], 15 days after treatment
Method: as §1, §2, §3

Stellaria [31] = experiment: as above; conditions: 500 bis 2000 [g/ha], 15 days after treatment
Method: as §1, §2, §3

Veronica Sp. [32] = experiment: as above; conditions: 500 bis 2000 [g/ha], 15 days after treatment
Method: as §1, §2, §3

Xanthium Sp. = experiment: as above; conditions: 500 bis 2000 [g/ha], 15 days after treatment
Method: as §1, §2, §3

For `CC1CCc2nc3c(cc2C1)C(=O)N1C(=O)C(C)(C(C)C)N=C31` (stereo not shown) [Verbindung 3.01, 2,8-Dimethyl-2-isopropyl-7,8,9,10-tetrahydro-3H,5H-imidazo[1',2':1,2]pyrrolo[3,4-b]chinolin-3,5-dion], the Herbizidwirkung (Abutilon [1]) was “gute bis sehr gute Herbizidwirkung (Boniturnoten von 1 bis 4 (insbesondere von 1 bis 3) weisen auf eine gute bis sehr gute Herbizidwirkung hin)”, the Herbizidwirkung (Alopecurus myos. [2]) was “gute bis sehr gute Herbizidwirkung (Boniturnoten von 1 bis 4 (insbesondere von 1 bis 3) weisen auf eine gute bis sehr gute Herbizidwirkung hin)” and the Herbizidwirkung (Amaranthus ret. [3]) was “gute bis sehr gute Herbizidwirkung (Boniturnoten von 1 bis 4 (insbesondere von 1 bis 3) weisen auf eine gute bis sehr gute Herbizidwirkung hin)”. For the same compound, the Herbizidwirkung (Avena fatua [4]) was “gute bis sehr gute Herbizidwirkung (Boniturnoten von 1 bis 4 (insbesondere von 1 bis 3) weisen auf eine gute bis sehr gute Herbizidwirkung hin)”, the Herbizidwirkung (Bromus tectorum [5]) was “gute bis sehr gute Herbizidwirkung (Boniturnoten von 1 bis 4 (insbesondere von 1 bis 3) weisen auf eine gute bis sehr gute Herbizidwirkung hin)” and the Herbizidwirkung (Chenopodium Sp. [6]) was “gute bis sehr gute Herbizidwirkung (Boniturnoten von 1 bis 4 (insbesondere von 1 bis 3) weisen auf eine gute bis sehr gute Herbizidwirkung hin)”. For the same compound, the Herbizidwirkung (Chrysanthe. leuc. [7]) was “gute bis sehr gute Herbizidwirkung (Boniturnoten von 1 bis 4 (insbesondere von 1 bis 3) weisen auf eine gute bis sehr gute Herbizidwirkung hin)”, the Herbizidwirkung (Digitaria sang. [8]) was “gute bis sehr gute Herbizidwirkung (Boniturnoten von 1 bis 4 (insbesondere von 1 bis 3) weisen auf eine gute bis sehr gute Herbizidwirkung hin)” and the Herbizidwirkung (Echinochloa crus galli [9]) was “gute bis sehr gute Herbizidwirkung (Boniturnoten von 1 bis 4 (insbesondere von 1 bis 3) weisen auf eine gute bis sehr gute Herbizidwirkung hin)”. The Herbizidwirkung (Galium aparine [10]) was “gute bis sehr gute Herbizidwirkung (Boniturnoten von 1 bis 4 (insbesondere von 1 bis 3) weisen auf eine gute bis sehr gute Herbizidwirkung hin)”, the Herbizidwirkung (Ipomoea) was “gute bis sehr gute Herbizidwirkung (Boniturnoten von 1 bis 4 (insbesondere von 1 bis 3) weisen auf eine gute bis sehr gute Herbizidwirkung hin)” and the Herbizidwirkung (Lolium perenne [11]) was “gute bis sehr gute Herbizidwirkung (Boniturnoten von 1 bis 4 (insbesondere von 1 bis 3) weisen auf eine gute bis sehr gute Herbizidwirkung hin)”. For the same compound, the Herbizidwirkung (Sinapis [12]) was “gute bis sehr gute Herbizidwirkung (Boniturnoten von 1 bis 4 (insbesondere von 1 bis 3) weisen auf eine gute bis sehr gute Herbizidwirkung hin)”, the Herbizidwirkung (Solanum nigrum [13]) was “gute bis sehr gute Herbizidwirkung (Boniturnoten von 1 bis 4 (insbesondere von 1 bis 3) weisen auf eine gute bis sehr gute Herbizidwirkung hin)” and the Herbizidwirkung (Sorghum halep. [14]) was “gute bis sehr gute Herbizidwirkung (Boniturnoten von 1 bis 4 (insbesondere von 1 bis 3) weisen auf eine gute bis sehr gute Herbizidwirkung hin)”. The Herbizidwirkung (Stellaria [15]) was “gute bis sehr gute Herbizidwirkung (Boniturnoten von 1 bis 4 (insbesondere von 1 bis 3) weisen auf eine gute bis sehr gute Herbizidwirkung hin)”, the Herbizidwirkung (Veronica Sp. [16]) was “gute bis sehr gute Herbizidwirkung (Boniturnoten von 1 bis 4 (insbesondere von 1 bis 3) weisen auf eine gute bis sehr gute Herbizidwirkung hin)” and the Herbizidwirkung (Abutilon [17]) was “gute bis sehr gute Herbizidwirkung (Boniturnoten von 1 bis 4 (insbesondere von 1 bis 3) weisen auf eine gute bis sehr gute Herbizidwirkung hin)”. For the same compound, the Herbizidwirkung (Alopecurus myos. [18]) was “gute bis sehr gute Herbizidwirkung (Boniturnoten von 1 bis 4 (insbesondere von 1 bis 3) weisen auf eine gute bis sehr gute Herbizidwirkung hin)”, the Herbizidwirkung (Amaranthus ret. [19]) was “gute bis sehr gute Herbizidwirkung (Boniturnoten von 1 bis 4 (insbesondere von 1 bis 3) weisen auf eine gute bis sehr gute Herbizidwirkung hin)” and the Herbizidwirkung (Avena fatua [20]) was “gute bis sehr gute Herbizidwirkung (Boniturnoten von 1 bis 4 (insbesondere von 1 bis 3) weisen auf eine gute bis sehr gute Herbizidwirkung hin)”. The Herbizidwirkung (Bromus tectorum [21]) was “gute bis sehr gute Herbizidwirkung (Boniturnoten von 1 bis 4 (insbesondere von 1 bis 3) weisen auf eine gute bis sehr gute Herbizidwirkung hin)”, the Herbizidwirkung (Chenopodium Sp. [22]) was “gute bis sehr gute Herbizidwirkung (Boniturnoten von 1 bis 4 (insbesondere von 1 bis 3) weisen auf eine gute bis sehr gute Herbizidwirkung hin)” and the Herbizidwirkung (Chrysanthe. leuc. [23]) was “gute bis sehr gute Herbizidwirkung (Boniturnoten von 1 bis 4 (insbesondere von 1 bis 3) weisen auf eine gute bis sehr gute Herbizidwirkung hin)”. For the same compound, the Herbizidwirkung (Digitaria sang. [24]) was “gute bis sehr gute Herbizidwirkung (Boniturnoten von 1 bis 4 (insbesondere von 1 bis 3) weisen auf eine gute bis sehr gute Herbizidwirkung hin)”, the Herbizidwirkung (Echinochloa crus galli [25]) was “gute bis sehr gute Herbizidwirkung (Boniturnoten von 1 bis 4 (insbesondere von 1 bis 3) weisen auf eine gute bis sehr gute Herbizidwirkung hin)” and the Herbizidwirkung (Galium aparine [26]) was “gute bis sehr gute Herbizidwirkung (Boniturnoten von 1 bis 4 (insbesondere von 1 bis 3) weisen auf eine gute bis sehr gute Herbizidwirkung hin)”. For the same compound, the Herbizidwirkung (Lolium perenne [27]) was “gute bis sehr gute Herbizidwirkung (Boniturnoten von 1 bis 4 (insbesondere von 1 bis 3) weisen auf eine gute bis sehr gute Herbizidwirkung hin)”, the Herbizidwirkung (Sinapis [28]) was “gute bis sehr gute Herbizidwirkung (Boniturnoten von 1 bis 4 (insbesondere von 1 bis 3) weisen auf eine gute bis sehr gute Herbizidwirkung hin)” and the Herbizidwirkung (Solanum nigrum [29]) was “gute bis sehr gute Herbizidwirkung (Boniturnoten von 1 bis 4 (insbesondere von 1 bis 3) weisen auf eine gute bis sehr gute Herbizidwirkung hin)”. The Herbizidwirkung (Sorghum halep. [30]) was “gute bis sehr gute Herbizidwirkung (Boniturnoten von 1 bis 4 (insbesondere von 1 bis 3) weisen auf eine gute bis sehr gute Herbizidwirkung hin)”, the Herbizidwirkung (Stellaria [31]) was “gute bis sehr gute Herbizidwirkung (Boniturnoten von 1 bis 4 (insbesondere von 1 bis 3) weisen auf eine gute bis sehr gute Herbizidwirkung hin)” and the Herbizidwirkung (Veronica Sp. [32]) was “gute bis sehr gute Herbizidwirkung (Boniturnoten von 1 bis 4 (insbesondere von 1 bis 3) weisen auf eine gute bis sehr gute Herbizidwirkung hin)”. For the same compound, the Herbizidwirkung (Xanthium Sp.) was “gute bis sehr gute Herbizidwirkung (Boniturnoten von 1 bis 4 (insbesondere von 1 bis 3) weisen auf eine gute bis sehr gute Herbizidwirkung hin)”.
